Data published in PMC9612005 (Pharmaceutics, 2022).

Legend:
rod photoreceptors = test: µERG a-wave of mouse retinal explants on MEA, scotopic (dark-adapted) stimulation; type: cell-based; conditions: for photoreceptor (rod) responses under low scotopic light: <−2.0 log; for photoreceptor (rod) responses under low scotopic light / reduction of a-wave amplitudes / decrease in the a-wave slope vs control: inhibitor 50 µM, activator 0.1 µM; for reduction of a-wave amplitudes: higher light intensities (≥−2.0 log); for a-wave amplitude / a-wave slope: inh 50 µM, act 0.1 µM, mean ±std
Procedure: (§1) Further animal experiments were performed using adult postnatal-day (P) 25–30 C57BL/6J mice (n = 12). Animals were housed under standard 12 h white cyclic lighting, had free access to food, water, and playgrounds, and were used irrespective of gender. Animal protocols compliant with §4 of the German law on animal protection were reviewed and approved by the Tübingen University committee on animal protection, and registered on 30 March 2022 under the No. AK05/22M. Moreover, experiments were performed in accordance with the ARVO statement for the use of animals in ophthalmic and visual research. All efforts were made to minimize the number of mice used and their suffering.
(§2) The mice were kept overnight in a ventilated light-tight box for dark-adaption. Subsequent procedures were performed under dim red light. The eyes of the mice were enucleated; then, the retina was isolated in extracellular solution containing (in mM): 125 NaCl, 26 NaHCO3, 2.5 KCl, 2 CaCl2, 1 MgCl2, 1.25 NaH2PO4, and 20 glucose, and was maintained at pH 7.4 using carboxygen perfusion (95/5% O2/CO2). All chemicals were obtained from Merck KGaA (Darmstadt, Germany). For MEA recording, the retinas were placed in the MEA-recording chamber (GC-side down). During the recordings, the tissue was perfused with carboxygenated medium at 32 °C. The chamber perfusion rate was adjusted to 2 mL/min.
(§3) Electrophysiological recordings were performed to assess the light dependent retinal responses (photoreceptors µERG and RGCs spikes) by means of a multi-electrode array system (MEA, USB-MEA60-Up-BC-System-E from Multi Channel Systems, Reutlingen, Germany) equipped with MEA 200/30iR-ITO-pr. The recordings were performed at a 25,000 Hz sampling-rate collecting unfiltered raw data. The trigger-synchronized operation of the light stimulation (LEDD1B T-Cube, Thorlabs) and MEA recording were controlled by the recording protocol set within the MCRack software (v 4.6.2, Multi Channel Systems, Reutlingen, Germany) and the digital I/O box (MCS). The light stimulation (white light LED, 2350 mW, MCWHD3, Thorlabs, Newton, NJ, USA) was applied from beneath the transparent glass MEA, guided by optic fiber and optics. A spectrometer USB4000-UV-VIS-ES (Ocean Optics, Orlando, FL, USA) was employed to calibrate the intensity of the applied light-stimulation protocol. To discriminate the rod and cone photoreceptor responses, a light-stimulation protocol for ex vivo MEA recordings was established following the standard in-vivo ERG protocol. For scotopic recordings (rod responses), the animals were dark-adapted (12 h), while for the photopic recordings (cone responses), the retinal explants were light-adapted on the MEA (5 min at intensity of 4.20 × 10^13 photons/cm^2/s), subsequent to scotopic stimulation. The parameters of the light stimuli were set as: light flash 250 ms long (3 repetition per light intensity, 20 s interval). Scotopic: 10 stimuli in 0.5 log steps from −4.5 to 0.0 (1.33 × 10^9–4.20 × 10^13 photons/cm^2/s). Photopic (background light: 4.20 × 10^13 photons/cm^2/s): four stimuli in 0.5 log steps from +0.5 to +2.0 (1.33 × 10^14–4.20 × 10^15 photons/cm^2/s).
(§4) MEA-recorded raw data files were filtered employing a Butterworth 2nd order filter (MC-Rack, Multi-channel systems) to extract the µERG (field potentials: bandpass 0.01–100 Hz) and spikes (high pass 200 Hz). The filtered data were converted to *.hdf files by MC DataManager (v1.6.1.0, Multi Channel Systems, Reutlingen, Germany) for further data processing in MATLAB [39]. Shown traces data are the average of 30 MEA recording electrodes, per condition. n = 5 retinae were recorded per condition. Statistical significance was estimated by one-way ANOVA followed by the Dunnett´s test for multiple comparisons. […]

cone photoreceptors = test: µERG a-wave of mouse retinal explants on MEA, photopic (light-adapted) stimulation; type: cell-based; conditions: for decrease in the a-wave slope vs control / a-wave amplitude / a-wave slope: photopic; for decrease in the a-wave slope vs control: averaged; for decrease in the a-wave slope vs control / cone a-wave responses under photopic stimulation: inhibitor 50 µM, activator 0.1 µM; for a-wave amplitude / a-wave slope: inh 50 µM, act 0.1 µM, mean ±std; for cone a-wave responses under photopic stimulation: ≥+0.5 log
Procedure: as §1, §2, §3, §4

[1] = scotopic, light intensity 0.0 log
[2] = scotopic, light intensity -0.5 log
[3] = scotopic, light intensity -1.0 log
[4] = scotopic, light intensity -1.5 log
[5] = scotopic, light intensity -2.0 log
[6] = scotopic, light intensity -2.5 log
[7] = scotopic, light intensity -3.0 log
[8] = scotopic, light intensity -3.5 log
[9] = scotopic, light intensity -4.0 log
[10] = scotopic, light intensity -4.5 log

SMILES	photoreceptor (rod) responses under low scotopic light (rod photoreceptors)	reduction of a-wave amplitudes (rod photoreceptors; scotopic)	a-wave amplitude (rod photoreceptors; [1])	a-wave slope (rod photoreceptors; [1])	a-wave amplitude (rod photoreceptors; [2])	a-wave slope (rod photoreceptors; [2])	a-wave amplitude (rod photoreceptors; [3])	a-wave slope (rod photoreceptors; [3])	a-wave amplitude (rod photoreceptors; [4])	a-wave slope (rod photoreceptors; [4])	a-wave amplitude (rod photoreceptors; [5])	a-wave slope (rod photoreceptors; [5])	a-wave amplitude (rod photoreceptors; [6])	a-wave slope (rod photoreceptors; [6])	a-wave amplitude (rod photoreceptors; [7])	a-wave slope (rod photoreceptors; [7])	a-wave amplitude (rod photoreceptors; [8])	a-wave slope (rod photoreceptors; [8])	a-wave amplitude (rod photoreceptors; [9])	a-wave slope (rod photoreceptors; [9])	also measured
O=c1c2nc(Br)n([C@@H]3O[C@@H]4CO[P@@](=O)(S)O[C@H]4[C@H]3O)c2nc2[nH]c(-c3ccccc3)cn12 [Rp-8-Br-PET-cGMPS]	essentially abolished photoreceptor responses	~ 96%	-7.32± 1.37 µV	-0.15± 0.11 µV / 20 ms	-4.49± 1.49 µV	-0.07± 0.04 µV / 20 ms	-3.62± 1.17 µV	-0.07± 0.04 µV / 20 ms	-2.22± 1.40 µV	-0.03± 0.03 µV / 20 ms	-1.85± 0.71 µV	-0.04± 0.03 µV / 20 ms	0.00± 0.00 µV	-0.05± 0.03 µV / 20 ms	0.00± 0.00 µV	-0.04± 0.02 µV / 20 ms	0.00± 0.00 µV	0.02± 0.02 µV / 20 ms	0.00± 0.00 µV	-0.02± 0.00 µV / 20 ms	light intensity at which rod a-wave response was detectable (rod photoreceptors; scotopic): −2.0 log units; a-wave amplitude (rod photoreceptors; [10]): 0.00± 0.00 µV; a-wave slope (rod photoreceptors; [10]): -0.02± 0.03 µV / 20 ms; decrease in the a-wave slope vs control (rod photoreceptors; scotopic): up to 90%; decrease in the a-wave slope vs control (cone photoreceptors): ~90%; a-wave amplitude (cone photoreceptors; light intensity +0.5 log): -1.53± 0.76 µV; a-wave slope (cone photoreceptors; light intensity +0.5 log): 0.03± 0.02 µV / 20 ms; a-wave amplitude (cone photoreceptors; light intensity +1.0 log): -1.98± 0.87 µV; a-wave slope (cone photoreceptors; light intensity +1.0 log): -0.04± 0.02 µV / 20 ms; a-wave amplitude (cone photoreceptors; light intensity +1.5 log): -1.96± 0.89 µV; a-wave slope (cone photoreceptors; light intensity +1.5 log): -0.05± 0.05 µV / 20 ms; a-wave amplitude (cone photoreceptors; light intensity +2.0 log): -2.27± 0.97 µV; a-wave slope (cone photoreceptors; light intensity +2.0 log): -0.01± 0.01 µV / 20 ms; cone a-wave responses under photopic stimulation (cone photoreceptors): the cone a-wave amplitudes showed only minimal increases
Nc1nc2c(nc(Sc3ccc(Cl)cc3)n2[C@@H]2O[C@@H]3COP(=O)(O)O[C@H]3[C@H]2O)c(=O)[nH]1 [8-pCPT-cGMP]	rod-responses were essentially absent	60–80%	-27.81± 6.62 µV	-0.64± 0.21 µV / 20 ms	-24.30± 7.17 µV	-0.39± 0.16 µV / 20 ms	-18.28± 4.38 µV	-0.31± 0.09 µV / 20 ms	-14.14± 3.10 µV	-0.19± 0.17 µV / 20 ms	-11.59± 2.75 µV	-0.12± 0.22 µV / 20 ms	-3.02± 0.74 µV	-0.07± 0.01 µV / 20 ms	0.04± 0.05 µV	0.09± 0.15 µV / 20 ms	0.00± 0.00 µV	-0.04± 0.08 µV / 20 ms	0.00± 0.00 µV	0.02± 0.01 µV / 20 ms	a-wave amplitude (rod photoreceptors; [10]): 0.00± 0.00 µV; a-wave slope (rod photoreceptors; [10]): 0.11± 0.10 µV / 20 ms; decrease in the a-wave slope vs control (rod photoreceptors; scotopic): ~ 85%; decrease in the a-wave slope vs control (cone photoreceptors): ~ 60%; a-wave amplitude (cone photoreceptors; light intensity +0.5 log): -3.04± 1.68 µV; a-wave slope (cone photoreceptors; light intensity +0.5 log): -0.04± 0.06 µV / 20 ms; a-wave amplitude (cone photoreceptors; light intensity +1.0 log): -7.72± 1.37 µV; a-wave slope (cone photoreceptors; light intensity +1.0 log): 0.07± 0.22 µV / 20 ms; a-wave amplitude (cone photoreceptors; light intensity +1.5 log): -10.79± 1.41 µV; a-wave slope (cone photoreceptors; light intensity +1.5 log): -0.18± 0.09 µV / 20 ms; a-wave amplitude (cone photoreceptors; light intensity +2.0 log): -12.55± 1.72 µV; a-wave slope (cone photoreceptors; light intensity +2.0 log): -0.23± 0.11 µV / 20 ms; cone a-wave responses under photopic stimulation (cone photoreceptors): no effect on cones
